# Source: patent US6930104B2, “Heterocyclic derivatives” (Takeda Chemical Industries, Ltd., priority 2001, dated 2005)
row,Compound,melting point
1,COc1ccc(C(=O)N2CCC(N3CC4(CCN(Cc5ccccc5)CC4)c4ccccc43)c3ccccc32)cc1OC (stereo not shown),155 to 157 °C
2,"COc1ccc(C(=O)N2c3ccccc3C(N3CCCc4cc(OCc5ccccc5)ccc43)CC2C)cc1OC (stereo not drawn) (hydrate or solvate) [Example 101, 2,4-cis-4-(6-Benzyloxy-1,2,3,4-tetrahydroquinolin-1-yl)-1-(3,4-dimethoxybenzoyl)-2-methyl-1,2,3,4-tetrahydroquinoline]",164 to 165 °C
3,"CCOc1ccc(C(=O)N2c3ccccc3C(N3CCCc4ccccc43)CC2C)cc1OC (stereo not shown) (hydrate or solvate) [Example 103, 1-(4-Ethoxy-3-methoxybenzoyl)-2-methyl-4-(1,2,3,4-tetrahydroquinolin-1-yl)-1,2,3,4-tetrahydroquinoline]",140 to 142 °C
4,"CCOc1ccc(C(=O)N2c3ccccc3C(n3c4ccccc4c4ccccc43)CC2C)cc1OC (stereo not drawn) (hydrate or solvate) [Example 143, 2,4-cis-4-(9H-9-Carbazolyl)-1-(4-ethoxy-3-methoxybenzoyl)-2-methyl-1,2,3,4-tetrahydroquinoline]",214 to 215 °C
5,"CCOc1ccc(C(=O)N2c3ccccc3C(n3c4ccccc4c4ccccc43)CC2C)cc1OCC (stereo not drawn) (hydrate or solvate) [Example 144, 2,4-cis-4-(9H-9-Carbazolyl)-1-(3,4-diethoxybenzoyl)-2-methyl-1,2,3,4-tetrahydroquinoline]",240 to 241 °C
6,"CCCC1CC(n2c3ccccc3c3ccccc32)c2ccccc2N1C(=O)c1ccc(OCC)c(OCC)c1 (stereo not drawn) (hydrate or solvate) [Example 147, 2,4-cis-4-(9H-9-Carbazolyl)-1-(3,4-diethoxybenzoyl)-2-propyl-1,2,3,4-tetrahydroquinoline]",220 °C
7,"COc1ccc(C(=O)N2c3ccccc3C(n3c4ccccc4c4ccccc43)C(O)C2C)cc1OC (stereo not shown) (hydrate or solvate) [Example 162, 4-(9H-9-Carbazolyl)-1-(3,4-dimethoxybenzoyl)-3-hydroxy-2-methyl-1,2,3,4-tetrahydroquinoline]",194 to 195 °C
8,"COc1ccc(C(=O)N2c3ccccc3C(N3CCCc4ccccc43)C(OC(C)=O)C2C)cc1OC (racemic) [Example 17, 2,3-trans-2,4-cis-3-Acetoxy-1-(3,4-dimethoxybenzoyl)-2-methyl-4-(1,2,3,4-tetrahydroquinolin-1-yl)-1,2,3,4-tetrahydroquinoline]",130 to 131 °C
9,"COc1ccc(C(=O)N2c3ccccc3C(N3CCSc4ccccc43)CC2C)cc1OC (racemic) [Example 20, 2,4-cis-4-(3,4-Dihydro-2H-1,4-benzothiazin-4-yl)-1-(3,4-dimethoxybenzoyl)-2-methyl-1,2,3,4-tetrahydroquinoline]",178 to 180 °C
10,"COc1ccc(C(=O)N2CCC(N3CCc4ccccc43)c3ccccc32)cc1OC (stereo not shown) [Example 2, 4-(2,3-Dihydro-1H-indol-1-yl)-1-(3,4-dimethoxybenzoyl)-1,2,3,4-tetrahydroquinoline]",121 to 123 °C
11,"CCCCC1CC(n2c3ccccc3c3ccccc32)c2ccccc2N1C(=O)c1ccc(OC)c(OC)c1 (stereo not drawn) [Example 40, 2,4-cis-2-Butyl-4-(9H-9-carbazolyl)-1-(3,4-dimethoxybenzoyl)-1,2,3,4-tetrahydroquinoline]",213 °C
12,"COc1ccc(C(=O)N2c3ccccc3C(n3c4ccccc4c4ccccc43)CC2CC(C)C)cc1OC (stereo not drawn) [Example 41, 2,4-cis-4-(9H-9-Carbazolyl)-1-(3,4-dimethoxybenzoyl)-2-isobutyl-1,2,3,4-tetrahydroquinoline]",191 to 193 °C
13,"COc1ccc(C(=O)N2c3ccccc3C(n3c4ccccc4c4ccccc43)CC2COCc2ccccc2)cc1OC (stereo not shown) [Example 43, 2-[(Benzyloxy)methyl]-4-(9H-9-carbazolyl)-1-(3,4-dimethoxybenzoyl)-1,2,3,4-tetrahydroquinoline]",203 to 204 °C
